We go through four compounds from patent US20250235509A1, “Formulation and Method of Preparing Glucagon-like Peptide-1 (GLP-1) for Oral Administration” (priority 2024, published 2025).

Where “and” joins values, the source holds several entries; their conditions need not be identical. Equal entries are not always repeated. Where two headings read alike, the source gives them in different places.

A short description of data set [1]: Body weight change in mice given oral GLP-1 analog. Format: in vivo, mouse. The settings on record: for Body Weight (Day 1) / % Body Weight Change / Body Weight (Day 7): individual Exp. mice. How it is done: A quantity of orally administered Semaglutide GLP-1 was prepared as discussed in FIG. 8, and orally given to mice (Exp.) for seven days, along with control mice (Control) to which no Semaglutide GLP-1 was orally administered. Body weight was measured at the beginning and on the seventh day. The results are reflected in the following table:
In one experiment, orally administered Tirzepatide GLP-1 caused weight loss in mice. A quantity of orally administered Tirzepatide GLP-1 was prepared as discussed above, and orally given to mice (Exp.) for five days, along with control mice (Control) to which no Tirzepatide GLP-1 was orally administered. Body weight was measured at the beginning and on the fifth day.

For data set [2], the system named is blood glucose. The experiment in a line: Blood glucose in mice after oral glucose solution. Format: in vivo, mouse. The settings on record: fasted four hours, 50 mg oral glucose. How it is done:
The orally administered Liraglutide was prepared by incubating Liraglutide at 1.7 mM in 9.6 mM EDTA for two hours, followed by incubation of the mixture with 15 mM zinc acetate for twelve hours to produce a Liraglutide for oral administration. The experimental mice were orally given 0.5 mg Liraglutide, and the control mice were administered a vehicle solution for 5 days. Thereafter, experimental and control mice were fasted for four hours followed by an orally given 50 mg glucose solution. Three and a half hours later, blood glucose was determined. The control mice were given a non-Liraglutide vehicle (N=3).
The orally administered Semaglutide GLP-1 was prepared by incubating Semaglutide GLP-1 at 1.7 mM in 9.6 mM EDTA for two hours, followed by incubation of the mixture with 15 mM zinc acetate for twelve hours to produce a Semaglutide GLP-1 for oral administration. Experimental mice were orally given 0.5 mg Liraglutide, and control mice were given a vehicle solution for 5 days. Thereafter, experimental and control mice were fasted for four hours, followed by an orally given 50 mg glucose solution. Three and a half hours later blood glucose was determined. The control mice were given a non-Liraglutide vehicle (N=3).
Orally administered Tirzepatide GLP-1 was also shown to lower blood glucose levels in mice. The orally administered Tirzepatide GLP-1 was prepared in the manner discussed above. Thereafter 0.15 mg of orally administered Tirzepatide GLP-1 was fed to mice for five days. The mice were fasted for four hours, then 50 mg of a glucose solution was orally given. Three hours later, blood glucose levels were determined. In three control mice, who received no orally administered Tirzepatide GLP-1, the glucose levels in mg/dl were 93, 95, and 88, respectively. In three experimental mice that received orally administered Tirzepatide GLP-1, the glucose levels were 50, 52, and 47, respectively. […]

For data set [3] the following is noted: orally administered in combination with absorption enhancer such as Salcaprozate sodium (SNAC); cited from earlier work.
The subject of data set [4] is blood glucose. The data set can be described thus: Glucose tolerance in human subject (blood glucose AUC). Format: in vivo. How it is done:
A human subject was orally given 10 mg Semaglutide GLP-1 prepared as described in FIG. 8 at −2 minutes. A control human subject was not administered any Semaglutide GLP-1 At time zero, 15 g glucose was orally given. Blood glucose levels were monitored every fifteen minutes thereafter for ninety minutes. The area-under-curve (AUC), which represents the quantity of glucose in the blood was then determined.

The nature of data set [5]: ELISA assay of pancreas and brain extracts of orally dosed mice. The settings on record: two hours after gavage at 0.16 mg/mouse, mice two weeks old. On the technique in general: In an ELISA, binding on a coated surface is turned into a signal by an enzyme label.
Description: (§1) A mouse at two weeks old was gavaged with Liraglutide, or not treated with Liraglutide to serve as a control mouse. Two hours later, the pancreas of the mouse was collected and homogenized, and a protein extract was centrifuged. Thereafter the ELISA essay was conducted.
(§2) Experimental mice, at two weeks old, were gavaged with Semaglutide GLP-1 at 0.16 mg/mouse, and control mice received no orally administered Semaglutide GLP-1. Two hours later, the pancreas and brain were collected and homogenized, and protein extracts were subjected to an ELISA assay.
Data set [6] can be described thus: Quantitative ELISA assay of whole body fluid to determine the absorption rate. Particulars: oral; whole body fluid collected one hour after feeding; color intensity vs standard curve.
Description: (§3) A quantitative ELISA assay to determine the absorption rate was also performed. The experimental mouse was sacrificed and whole body fluid collected one hour after feeding with Liraglutide. The intensity of the color was compared with that of a standard curve constructed by standard Liraglutide.
(§4) A quantitative ELISA assay was performed to determine the absorption rate, and the mice were sacrificed and whole body fluid collected one hour after feeding with Semaglutide GLP-1. […] The intensity of the color was compared with that of a standard curve constructed by standard Semaglutide GLP-1.
Data set [7] can be described thus: ELISA assay of sera/plasma of mice orally administered with PSIM-processed GLP-1 analog. Particulars: serum collected two hours after gavage, mouse two weeks old, vs control mouse.
Description: (§5) The concentrations of each reagent are as follows: • Liraglutide: 1.5 mM • EDTA: 5 to 10 mM • Zinc acetate: 15-100 mM Referring to FIGS. 1-7, an enzyme-linked immunosorbent assay (ELISA) was performed on the sera of mice orally administered with Liraglutide following the PSIM process.
(§6) In this assay, a mouse (at two weeks old) was gavaged with Liraglutide in contrasts to a control mouse to which no Liraglutide was administered. After two hours, serum was collected, and an ELISA assay performed.
(§7) Two hours later, serum was collected, and an ELISA assay was performed.
For data set [8] the following is noted: mouse, in vivo, po.
Description: as §3, §4
The conditions of data set [9]: mouse, in vivo.
Description: as §1, §2
For data set [10] the following is noted: in vivo.
Description: as §5, §6, §7

For Tirzepatide [Tirzepatide GLP-1], the “Body Weight (Day 1)” value in [1] (beginning of five days oral dosing) is 26 g and 24 g and 28 g. In data set [1] (oral dosing for five days), the “% Body Weight Change” value was −18% and −4.1% and −7.1%; the “body weight outcome relative to control mice” value is “reduced weight gain or weight loss relative to the control mice”. Besides, the “Body Weight (Day 7)” value in data set [1] (oral dosing for five days, text says measured on the fifth day) was 22 g and 23 g and 26 g. Further, the glucose levels in [2] (individual mice, 0.15 mg orally for five days, three hours later) is 50 mg/dL and 52 mg/dL and 47 mg/dL.

For Semaglutide, the bioavailability result in [3] is recorded as “about 0.8%”.

Consider Semaglutide [Semaglutide GLP-1], for which, in [4] (10 mg orally at -2 minutes, 15 g oral glucose at time zero, monitored ninety minutes), the “blood glucose area-under-curve (AUC)” value came to 232. In data set [4] (10 mg orally, 15 g oral glucose, ninety minutes), the “AUC reduction vs control subject” value is “twenty six”. In data set [1] (Day 1 to Day 7 of oral dosing), the “% Body Weight Change” value is −7% and +8%. For the same compound, the “Body Weight (Day 1)” value in [1] (beginning of seven days oral dosing) is 28 g (2×) and 24 g. The “Body Weight (Day 7)” value in [1] (seventh day of oral dosing) is 26 g (2×) and 28 g. Moreover, the “body weight outcome relative to control mice” value in data set [1] (oral dosing for seven days) is recorded as “reduced weight gain or weight loss relative to the control mice”. In [5], the “presence in brain extract by ELISA (blue color)” value was “presence of orally administered Semaglutide GLP-1 in the pancreas and brain”; the “presence in pancreas extract by ELISA (blue color)” value is “presence of orally administered Semaglutide GLP-1 in the pancreas and brain”. The absorption rate result in data set [6] is “approximately seventy”. In addition, the “blood glucose (average)” value in data set [2] (0.5 mg orally for 5 days, measured three and a half hours later, N=3) came out at 45.00. Further, the “average difference in blood glucose, control mice vs treated mice” value in [2] (0.5 mg orally for 5 days, three and a half hours later) is “approximately 50%”. Further, in [7], the “presence in serum by ELISA (blue color)” value is recorded as “existed in the experimental mouse serum”.

With `CCCCCCCCCCCCCCCC(=O)N[C@@H](CCC(=O)NCCCC[C@H](NC(=O)[C@H](C)NC(=O)[C@H](C)NC(=O)[C@H](CCC(N)=O)NC(=O)CNC(=O)[C@H](CCC(=O)O)NC(=O)[C@H](CC(C)C)NC(=O)[C@H](Cc1ccc(O)cc1)NC(=O)[C@H](CO)NC(=O)[C@H](CO)NC(=O)[C@@H](NC(=O)[C@H](CC(=O)O)NC(=O)[C@H](CO)NC(=O)[C@@H](NC(=O)[C@H](Cc1ccccc1)NC(=O)[C@@H](NC(=O)CNC(=O)[C@H](CCC(=O)O)NC(=O)[C@H](C)NC(=O)[C@@H](N)Cc1cnc[nH]1)[C@@H](C)O)[C@@H](C)O)C(C)C)C(=O)N[C@@H](CCC(=O)O)C(=O)N[C@@H](Cc1ccccc1)C(=O)N[C@H](C(=O)N[C@@H](C)C(=O)N[C@@H](Cc1c[nH]c2ccccc12)C(=O)N[C@@H](CC(C)C)C(=O)N[C@H](C(=O)N[C@@H](CCCNC(=N)N)C(=O)NCC(=O)N[C@@H](CCCNC(=N)N)C(=O)NCC(=O)O)C(C)C)[C@@H](C)CC)C(=O)O` [Liraglutide], the absorption rate result in data set [8] was “seventy two”. Also, the “time at which substance appeared in the pancreas after gavage” value in [9] was “ninety”. Also, the “presence of GLP-1 in orally dosed mouse vs control, all instances FIGS. 1-4” value in data set [10] (po) was “increased presence of GLP-1”. Also, the “presence in serum by ELISA (blue color)” value in data set [10] (mouse) is listed as “existence of Liraglutide in the serum”.
